pEC50: −log10 of the molar value.

The experiment has as its system recombinant NL4-3 virus. Description: HIV cell culture assay. In kind it is cell-based. The settings on record: Human immunodeficiency virus 1, NL43, MT2. The method, then: HIV cell culture assay—MT-2 cells and 293T cells were obtained from the NIH AIDS Research and Reference Reagent Program. MT-2 cells were propagated in RPMI 1640 media supplemented with 10% heat inactivated fetal bovine serum, 100 […]. The 293T cells were propagated in DMEM media supplemented with 10% heat inactivated fetal bovine serum (FBS), 100 units/ml penicillin G and 100 μg/ml streptomycin. The proviral DNA clone of NL4-3 was obtained from the NIH AIDS Research and Reference Reagent Program. A recombinant NL4-3 virus, in which a section of the nef gene from NL4-3 was replaced with the Renilla luciferase gene, was used as a reference virus. In addition, residue Gag P373 was converted to P373S. Briefly, the recombinant virus was prepared by transfection of the altered proviral clone of NL4-3. Transfections were performed in 293T cells using LipofectAMINE PLUS from Invitrogen (Carlsbad, Calif.), according to manufacturer's instruction. The virus was titered in MT-2 cells using luciferase enzyme activity as a marker. Luciferase was quantitated using the Dual Luciferase kit from Promega (Madison, Wis.), with modifications to the manufacturer's protocol. The diluted Passive Lysis solution was pre-mixed with the re-suspended Luciferase Assay Reagent and the re-suspended Stop & Glo Substrate (2:1:1 ratio). Fifty (50) μL of the mixture was added to each aspirated well on assay plates and luciferase activity was measured immediately on a Wallac TriLux (Perkin-Elmer). Antiviral activities of inhibitors toward the recombinant virus were quantified by measuring luciferase activity in cells infected for 4-5 days with NLRluc recombinants in the presence serial dilutions of the inhibitor.
Regarding `C=C(C)[C@@H]1CC[C@]2(CO)CC[C@]3(C)[C@H](CC[C@@H]4[C@@]5(C)CCCN(C(=O)CC(=O)O)C(C)(C)C5CC[C@]43C)[C@@H]12` (stereo partly drawn) [Example 1, 3-((7aR,7bR,9aS,12R,12aR,12bR,14aR,14bR)-9a-(hydroxymethyl)-5,5,7a,7b,14b-pentamethyl-12-(prop-1-en-2-yl)icosahydrocyclopenta[7,8]phenanthro[2,1-c]azepin-4(1H)-yl)-3-oxopropanoic acid], the pEC50 was 5.64.

As for `C=C(C)[C@@H]1CC[C@]2(CO)CC[C@]3(C)[C@H](CC[C@@H]4[C@@]5(C)CCCN(C(=O)c6cccc(C(=O)O)c6)C(C)(C)C5CC[C@]43C)[C@@H]12` (stereo partly drawn) [Example 2, 3-((7aR,7bR,9aS,12R,12aR,12bR,14aR,14bR)-9a-(hydroxymethyl)-5,5,7a,7b,14b-pentamethyl-12-(prop-1-en-2-yl)docosahydrocyclopenta[7,8]phenanthro[2,1-c]azepine-4-carbonyl)benzoic acid], the pEC50 was < 5.10.

For `C=C(C)[C@@H]1CC[C@]2(CO)CC[C@]3(C)[C@H](CC[C@@H]4[C@@]5(C)CCCN(C(=O)CCC(=O)O)C(C)(C)C5CC[C@]43C)[C@@H]12` (stereo partly drawn) [Example 3, 4-((7aR,7bR,9aS,12R,12aR,12bR,14aR,14bR)-9a-(hydroxymethyl)-5,5,7a,7b,14b-pentamethyl-12-(prop-1-en-2-yl)icosahydrocyclopenta[7,8]phenanthro[2,1-c]azepin-4(1H)-yl)-4-oxobutanoic acid], the pEC50 was < 5.10.

As for `C=C(C)[C@@H]1CC[C@]2(CO)CC[C@]3(C)[C@H](CC[C@@H]4[C@@]5(C)CCCN(C(=O)CCCCC(=O)O)C(C)(C)C5CC[C@]43C)[C@@H]12` (stereo partly drawn) [Example 4, 6-((7aR,7bR,9aS,12R,12aR,12bR,14aR,14bR)-9a-(hydroxymethyl)-5,5,7a,7b,14b-pentamethyl-12-(prop-1-en-2-yl)icosahydrocyclopenta[7,8]phenanthro[2,1-c]azepin-4(1H)-yl)-6-oxohexanoic acid], the negative logarithm of the EC50 (pEC50) was < 5.10.

`C=C(C)[C@@H]1CC[C@]2(CO)CC[C@]3(C)[C@H](CC[C@@H]4[C@@]5(C)CCN(C(=O)c6cccc(C(=O)O)c6)C(C)(C)C5CC[C@]43C)[C@@H]12` (stereo partly drawn) [Example 5, 3-((6aR,6bR,8aS,11R,11aR,11bR,13aR,13bR)-8a-(hydroxymethyl)-4,4,6a,6b,13b-pentamethyl-11-(prop-1-en-2-yl)icosahydro-1H-cyclopenta[5,6]naphtho[2,1-f]isoquinoline-3-carbonyl)benzoic acid]: the pEC50 was 5.90.

For `C=C(C)[C@@H]1CC[C@]2(CO)CC[C@]3(C)[C@H](CC[C@@H]4[C@@]5(C)CCN(C(=O)C(=O)O)C(C)(C)C5CC[C@]43C)[C@@H]12` (stereo partly drawn) [Example 6, 2-((6aR,6bR,8aS,11R,11aR,11bR,13aR,13bR)-8a-(hydroxymethyl)-4,4,6a,6b,13b-pentamethyl-11-(prop-1-en-2-yl)icosahydro-3H-cyclopenta[5,6]naphtho[2,1-f]isoquinolin-3-yl)-2-oxoacetic acid], the negative logarithm of the EC50 (pEC50) was 5.40.

In the case of `C=C(C)[C@@H]1CC[C@]2(CO)CC[C@]3(C)[C@H](CC[C@@H]4[C@@]5(C)CCN(C(=O)CC(=O)O)C(C)(C)C5CC[C@]43C)[C@@H]12` (stereo partly drawn) [Example 7, 3-((6aR,6bR,8aS,11R,11aR,11bR,13aR,13bR)-8a-(hydroxymethyl)-4,4,6a,6b,13b-pentamethyl-11-(prop-1-en-2-yl)icosahydro-3H-cyclopenta[5,6]naphtho[2,1-f]isoquinolin-3-yl)-3-oxopropanoic acid], the pEC50 was 6.32.

For `C=C(C)[C@@H]1CC[C@]2(CO)CC[C@]3(C)[C@H](CC[C@@H]4[C@@]5(C)CCN(C(=O)CCCC(=O)O)C(C)(C)C5CC[C@]43C)[C@@H]12` (stereo partly drawn) [Example 8, 5-((6aR,6bR,8aS,11R,11aR,11bR,13aR,13bR)-8a-(hydroxymethyl)-4,4,6a,6b,13b-pentamethyl-11-(prop-1-en-2-yl)icosahydro-3H-cyclopenta[5,6]naphtho[2,1-f]isoquinolin-3-yl)-5-oxopentanoic acid], the pEC50 was 5.74.

As to `C=C(C)[C@@H]1CC[C@]2(CO)CC[C@]3(C)[C@H](CC[C@@H]4[C@@]5(C)CCN(C(=O)CCC(=O)O)C(C)(C)C5CC[C@]43C)[C@@H]12` (stereo partly drawn) [Example 9, 4-((6aR,6bR,8aS,11R,11aR,11bR,13aR,13bR)-8a-(hydroxymethyl)-4,4,6a,6b,13b-pentamethyl-11-(prop-1-en-2-yl)icosahydro-3H-cyclopenta[5,6]naphtho[2,1-f]isoquinolin-3-yl)-4-oxobutanoic acid], the pEC50 is 5.56.

With `C=C(C)[C@@H]1CC[C@]2(CO)CC[C@]3(C)[C@H](CC[C@@H]4[C@@]5(C)CCN(C(=O)c6ccc(C(=O)O)cc6)C(C)(C)C5CC[C@]43C)[C@@H]12` (stereo partly drawn) [Example 10, 4-((6aR,6bR,8aS,11R,11aR,11bR,13aR,13bR)-8a-(hydroxymethyl)-4,4,6a,6b,13b-pentamethyl-11-(prop-1-en-2-yl)icosahydro-1H-cyclopenta[5,6]naphtho[2,1-f]isoquinoline-3-carbonyl)benzoic acid], the negative-log EC50 (pEC50) was 6.49.

Take `C=C(C)[C@@H]1CC[C@]2(CO)CC[C@]3(C)[C@H](CC[C@@H]4[C@@]5(C)CCCN(S(=O)(=O)c6ccc(C(=O)O)o6)C(C)(C)C5CC[C@]43C)[C@@H]12` (stereo partly drawn) [Example 11, 5-(((7aR,7bR,9aS,12R,12aR,12bR,14aR,14bR)-9a-(hydroxymethyl)-5,5,7a,7b,14b-pentamethyl-12-(prop-1-en-2-yl)icosahydrocyclopenta[7,8]phenanthro[2,1-c]azepin-4(1H)-yl)sulfonyl)furan-2-carboxylic acid]: the negative logarithm of the EC50 (pEC50) is < 5.10.

For `C=C(C)[C@@H]1CC[C@]2(CO)CC[C@]3(C)[C@H](CC[C@@H]4[C@@]5(C)CCCN(S(=O)(=O)c6ccc(/C=C/C(=O)O)cc6)C(C)(C)C5CC[C@]43C)[C@@H]12` (stereo partly drawn) [Example 12, (E)-3-(4-(((7aR,7bR,9aS,12R,12aR,12bR,14aR,14bR)-9a-(hydroxymethyl)-5,5,7a,7b,14b-pentamethyl-12-(prop-1-en-2-yl)icosahydrocyclopenta[7,8]phenanthro[2,1-c]azepin-4(1H)-yl)sulfonyl)phenyl)acrylic acid], the pEC50 is < 5.10.

In the case of `C=C(C)[C@@H]1CC[C@]2(CO)CC[C@]3(C)[C@H](CC[C@@H]4[C@@]5(C)CCCN(S(=O)(=O)c6cccc(C(=O)O)c6)C(C)(C)C5CC[C@]43C)[C@@H]12` (stereo partly drawn) [Example 13, 3-(((7aR,7bR,9aS,12R,12aR,12bR,14aR,14bR)-9a-(hydroxymethyl)-5,5,7a,7b,14b-pentamethyl-12-(prop-1-en-2-yl)icosahydrocyclopenta[7,8]phenanthro[2,1-c]azepin-4(1H)-yl)sulfonyl)benzoic acid], the pEC50 is < 5.10.

Consider `C=C(C)[C@@H]1CC[C@]2(CO)CC[C@]3(C)[C@H](CC[C@@H]4[C@@]5(C)CCCN(S(=O)(=O)c6ccc(C(=O)O)cc6)C(C)(C)C5CC[C@]43C)[C@@H]12` (stereo partly drawn) [Example 14, 4-(((7aR,7bR,9aS,12R,12aR,12bR,14aR,14bR)-9a-(hydroxymethyl)-5,5,7a,7b,14b-pentamethyl-12-(prop-1-en-2-yl)icosahydrocyclopenta[7,8]phenanthro[2,1-c]azepin-4(1H)-yl)sulfonyl)benzoic acid], for which the pEC50 is 5.77.
